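Test compounds were applied to cells in 96-well plates for 48 hours at 5 doses. The concentration for full growth arrest is given as TGI.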
Experiments:
Test in all cases: DTP human tumour cell line panel, 48 h
786-0 renal = system: 786-0 renal
A498 renal = system: A498 renal
A549 NSCLC = system: A549 NSCLC
ACHN renal = system: ACHN renal
BT-549 breast = system: BT-549 breast
CAKI-1 renal = system: CAKI-1 renal
COLO 205 colon = system: COLO 205 colon
DU-145 prostate = system: DU-145 prostate
EKVX NSCLC = system: EKVX NSCLC
HCC-2998 colon = system: HCC-2998 colon
HCT-116 colon = system: HCT-116 colon
HCT-15 colon = system: HCT-15 colon
HOP-62 NSCLC = system: HOP-62 NSCLC
HOP-92 NSCLC = system: HOP-92 NSCLC
HS 578T breast = system: HS 578T breast
HT29 colon = system: HT29 colon
IGROV1 ovarian = system: IGROV1 ovarian
K-562 leukemia = system: K-562 leukemia
KM12 colon = system: KM12 colon
LOX IMVI melanoma = system: LOX IMVI melanoma
M14 melanoma = system: M14 melanoma
MALME-3M melanoma = system: MALME-3M melanoma
MCF7 breast = system: MCF7 breast
MDA-MB-231 breast = system: MDA-MB-231 breast
MDA-MB-435 = system: MDA-MB-435
MDA-N = system: MDA-N
MOLT-4 leukemia = system: MOLT-4 leukemia
NCI-H226 lung = system: NCI-H226 lung
NCI-H23 lung = system: NCI-H23 lung
NCI-H522 lung = system: NCI-H522 lung
NCI/ADR-RES ovarian = system: NCI/ADR-RES ovarian
OVCAR-3 ovarian = system: OVCAR-3 ovarian
OVCAR-4 ovarian = system: OVCAR-4 ovarian
OVCAR-5 ovarian = system: OVCAR-5 ovarian
OVCAR-8 ovarian = system: OVCAR-8 ovarian
PC-3 prostate = system: PC-3 prostate
RPMI-8226 leukemia = system: RPMI-8226 leukemia
RXF 393 renal = system: RXF 393 renal
SF-268 CNS = system: SF-268 CNS
SF-295 CNS = system: SF-295 CNS
SF-539 CNS = system: SF-539 CNS
SK-MEL-2 melanoma = system: SK-MEL-2 melanoma
SK-MEL-28 melanoma = system: SK-MEL-28 melanoma
SK-MEL-5 melanoma = system: SK-MEL-5 melanoma
SK-OV-3 ovarian = system: SK-OV-3 ovarian
SN12C renal = system: SN12C renal
SNB-19 CNS = system: SNB-19 CNS
SNB-75 CNS = system: SNB-75 CNS
SR leukemia = system: SR leukemia
SW-620 colon = system: SW-620 colon
T-47D breast = system: T-47D breast
TK-10 renal = system: TK-10 renal
U251 CNS = system: U251 CNS
UACC-257 melanoma = system: UACC-257 melanoma
UACC-62 melanoma = system: UACC-62 melanoma
UO-31 renal = system: UO-31 renal
CCRF-CEM leukemia = system: CCRF-CEM leukemia
HL-60(TB) leukemia = system: HL-60(TB) leukemia
NCI-H460 lung = system: NCI-H460 lung

In the case of CC12CCC(=O)C=C1CCC1C2C(O)CC2(C)C(c3csc(N)n3)CCC12 (stereo not given), the TGI (786-0 renal) is reported as over 100 µM, the TGI (A498 renal) is reported as over 100 µM and the TGI (A549 NSCLC) is reported as over 100 µM. For the same compound, the TGI (ACHN renal) was over 100 µM, the TGI (BT-549 breast) was over 100 µM and the TGI (CAKI-1 renal) was over 100 µM. For the same compound, the TGI (COLO 205 colon) was over 100 µM, the TGI (DU-145 prostate) was over 100 µM and the TGI (EKVX NSCLC) was over 100 µM. It also gave a TGI (HCC-2998 colon) of over 100 µM, a TGI (HCT-116 colon) of over 100 µM and a TGI (HCT-15 colon) of over 100 µM. The TGI (HOP-62 NSCLC) was over 100 µM, the TGI (HOP-92 NSCLC) was over 100 µM and the TGI (HS 578T breast) was over 100 µM. It also gave a TGI (HT29 colon) of over 100 µM, a TGI (IGROV1 ovarian) of over 100 µM and a TGI (K-562 leukemia) of over 100 µM. The TGI (KM12 colon) was over 100 µM, the TGI (LOX IMVI melanoma) was over 100 µM and the TGI (M14 melanoma) was over 100 µM. For the same compound, the TGI (MALME-3M melanoma) was over 100 µM, the TGI (MCF7 breast) was over 100 µM and the TGI (MDA-MB-231 breast) was over 100 µM. The TGI (MDA-MB-435) was over 100 µM, the TGI (MDA-N) was over 100 µM and the TGI (MOLT-4 leukemia) was over 100 µM. For the same compound, the TGI (NCI-H226 lung) was over 100 µM, the TGI (NCI-H23 lung) was over 100 µM and the TGI (NCI-H522 lung) was over 100 µM. The TGI (NCI/ADR-RES ovarian) was over 100 µM, the TGI (OVCAR-3 ovarian) was over 100 µM and the TGI (OVCAR-4 ovarian) was over 100 µM. It also gave a TGI (OVCAR-5 ovarian) of over 100 µM, a TGI (OVCAR-8 ovarian) of over 100 µM and a TGI (PC-3 prostate) of over 100 µM. It also gave a TGI (RPMI-8226 leukemia) of over 100 µM, a TGI (RXF 393 renal) of over 100 µM and a TGI (SF-268 CNS) of over 100 µM. The TGI (SF-295 CNS) was over 100 µM, the TGI (SF-539 CNS) was over 100 µM and the TGI (SK-MEL-2 melanoma) was over 100 µM. It also gave a TGI (SK-MEL-28 melanoma) of over 100 µM, a TGI (SK-MEL-5 melanoma) of over 100 µM and a TGI (SK-OV-3 ovarian) of over 100 µM. The TGI (SN12C renal) was over 100 µM, the TGI (SNB-19 CNS) was over 100 µM and the TGI (SNB-75 CNS) was over 100 µM. It also gave a TGI (SR leukemia) of over 100 µM, a TGI (SW-620 colon) of over 100 µM and a TGI (T-47D breast) of over 100 µM. It also gave a TGI (TK-10 renal) of over 100 µM, a TGI (U251 CNS) of over 100 µM and a TGI (UACC-257 melanoma) of over 100 µM. The TGI (UACC-62 melanoma) was over 100 µM and the TGI (UO-31 renal) was over 100 µM.

Work on Cn1c(-c2ccc(/C=N\N3CCN(/N=C/c4ccc(-c5c[n+]6ccccc6n5C)cc4)CC3)cc2)c[n+]2ccccc12 yielded a TGI (786-0 renal) of 70.7 µM, a TGI (A498 renal) of 42.8 µM and a TGI (A549 NSCLC) of over 100 µM. The TGI (ACHN renal) was over 100 µM, the TGI (BT-549 breast) was over 100 µM and the TGI (CAKI-1 renal) was over 100 µM. It also gave a TGI (CCRF-CEM leukemia) of over 100 µM, a TGI (COLO 205 colon) of over 100 µM and a TGI (DU-145 prostate) of over 100 µM. For the same compound, the TGI (EKVX NSCLC) was over 100 µM, the TGI (HCT-116 colon) was over 100 µM and the TGI (HCT-15 colon) was over 100 µM. The TGI (HL-60(TB) leukemia) was 56.9 µM, the TGI (HOP-92 NSCLC) was 84.6 µM and the TGI (HS 578T breast) was 92.8 µM. For the same compound, the TGI (HT29 colon) was over 100 µM, the TGI (IGROV1 ovarian) was over 100 µM and the TGI (KM12 colon) was over 100 µM. The TGI (LOX IMVI melanoma) was over 100 µM, the TGI (M14 melanoma) was over 100 µM and the TGI (MCF7 breast) was over 100 µM. It also gave a TGI (MDA-MB-231 breast) of 75 µM, a TGI (MDA-MB-435) of over 100 µM and a TGI (MDA-N) of over 100 µM. The TGI (MOLT-4 leukemia) was over 100 µM, the TGI (NCI-H226 lung) was over 100 µM and the TGI (NCI-H23 lung) was over 100 µM. For the same compound, the TGI (NCI-H460 lung) was over 100 µM, the TGI (NCI-H522 lung) was over 100 µM and the TGI (NCI/ADR-RES ovarian) was over 100 µM. For the same compound, the TGI (OVCAR-3 ovarian) was over 100 µM, the TGI (OVCAR-4 ovarian) was over 100 µM and the TGI (OVCAR-5 ovarian) was over 100 µM. It also gave a TGI (OVCAR-8 ovarian) of over 100 µM, a TGI (PC-3 prostate) of over 100 µM and a TGI (RPMI-8226 leukemia) of over 100 µM. The TGI (RXF 393 renal) was 60.9 µM, the TGI (SF-268 CNS) was over 100 µM and the TGI (SF-295 CNS) was 78.6 µM. The TGI (SF-539 CNS) was over 100 µM, the TGI (SK-MEL-2 melanoma) was over 100 µM and the TGI (SK-MEL-5 melanoma) was over 100 µM. It also gave a TGI (SK-OV-3 ovarian) of over 100 µM, a TGI (SN12C renal) of over 100 µM and a TGI (SNB-19 CNS) of over 100 µM. For the same compound, the TGI (SNB-75 CNS) was over 100 µM, the TGI (SR leukemia) was over 100 µM and the TGI (SW-620 colon) was over 100 µM. It also gave a TGI (T-47D breast) of over 100 µM, a TGI (TK-10 renal) of over 100 µM and a TGI (U251 CNS) of over 100 µM. The TGI (UACC-257 melanoma) was over 100 µM, the TGI (UACC-62 melanoma) was over 100 µM and the TGI (UO-31 renal) was over 100 µM.

Source: PubChem BioAssay (NCI)
